Measured values reported in BigSolDB 2.1.

## Nc1ccc(S(=O)(=O)Nc2ncccn2)cc1
In acetonitrile, 278.15 K
  solubility (mole fraction): 0.000316
In acetonitrile, 283.15 K
  solubility (mole fraction): 0.000385
In acetonitrile, 288.15 K
  solubility (mole fraction): 0.000465
In acetonitrile, 293.15 K
  solubility (mole fraction): 0.000532
In acetonitrile, 298.15 K
  solubility (mole fraction): 0.000602
In acetonitrile, 303.15 K
  solubility (mole fraction): 0.000666
In acetonitrile, 308.15 K
  solubility (mole fraction): 0.000775
In acetonitrile, 313.15 K
  solubility (mole fraction): 0.000865
In acetonitrile, 318.15 K
  solubility (mole fraction): 0.000935
In methanol, 278.15 K
  solubility (mole fraction): 7.1e-05
In methanol, 283.15 K
  solubility (mole fraction): 9.5e-05
In methanol, 288.15 K
  solubility (mole fraction): 0.000132
In methanol, 293.15 K
  solubility (mole fraction): 0.000162
In methanol, 298.15 K
  solubility (mole fraction): 0.000191
In methanol, 303.15 K
  solubility (mole fraction): 0.000236
In methanol, 308.15 K
  solubility (mole fraction): 0.00029
In methanol, 313.15 K
  solubility (mole fraction): 0.00034
In methanol, 318.15 K
  solubility (mole fraction): 0.000384
